12 compounds from patent US8367713B2, “Inhibition and dispersion of bacterial biofilms with imidazole-triazole derivatives” (North Carolina State University, priority 2008, dated 2013) can be followed below.

Each structure is given as a SMILES string. Structures can show the parent of a compound that is named as a salt.

The inhibition is the share of the control response that was lost under treatment.

For this test, the system named is MRSA. As to the kind of experiment: Biofilm inhibition at 100 μM, MRSA. The format is cell-based. The conditions noted are these: Staphylococcus aureus, biofilm inhibition, 100 μM, read-out: MRSA % Inhibition. As to the method: Procedure to Determine the Inhibitory Effect of Test Compounds on E. faecium, MRSA, S. epidermidis, PAO1, PA14, E. Coli and MDRAB Biofilm Formation: Inhibition assays were performed by taking an overnight culture of bacterial strain and subculturing it at an OD600 of 0.01 into the necessary media (brain heart infusion for E. faecium, tryptic soy broth with a 0.5% glucose supplement (TSBG) for MRSA, Luria-Bertani (LB) media for MDRAB, Luria-Bertani media without NaCl (LBNS) for PAO1 and PA14, Luria-Bertani (LB) media for E. coli and tryptic soy broth with a 0.5% glucose supplement and a 3.0% NaCl supplement (TGN) for S. epidermidis. Stock solutions of predetermined concentrations of the test compound were then made in the necessary media. These stock solutions were aliquoted (100 μL) into the wells of the 96-well PVC microtiter plate. Sample plates were then wrapped in GLAD Press n′ Seal® followed by an incubation under stationary conditions for 24 h at 37° C. After incubation, the media was discarded from the wells and the plates were washed thoroughly with water. Plates were then stained with 100 μL of 0.1% solution of crystal violet (CV) and then incubated at ambient temperature for 30 min. Plates were washed with water again and the remaining stain was solubilized with 200 μL of 95% ethanol. A sample of 125 μL of solubilized CV stain from each well was transferred to the corresponding wells of a polystyrene microtiter dish. Biofilm inhibition was quantitated by measuring the OD540 of each well in which a negative control lane wherein no biofilm was formed served as a background and was subtracted out.
Biofilm inhibition has been tested for the following compounds, each of which was tested at a concentration of 100 μM.
As for `Nc1nc(CCCc2cn(CC(=O)Nc3ccccc3)nn2)c[nH]1` [2-{4-[3-(2-amino-1H-imidazol-4-yl)-propyl]-[1,2,3]triazol-1-yl}-N-phenyl-acetamide hydrochloride], the inhibition at 100 µM is 41.9 ± 2%.
In the case of `Nc1nc(CCCc2cn(CC(=O)NCCCc3ccccc3)nn2)c[nH]1` [2-{4-[3-(2-amino-1H-imidazol-4-yl)-propyl]-[1,2,3]triazol-1-yl}-N-(3-phenyl-propyl)-acetamide hydrochloride] it was 64.8 ± 2%.
In the case of `COc1ccc(NC(=O)Cn2cc(CCCc3c[nH]c(N)n3)nn2)cc1` [2-{4-[3-(2-amino-1H-imidazol-4-yl)-propyl]-[1,2,3]triazol-1-yl}-N-(4-methoxy-phenyl)-acetamide hydrochloride] it was 41.1 ± 2%; in that of `COc1ccc(CCNC(=O)Cn2cc(CCCc3c[nH]c(N)n3)nn2)cc1` [2-{4-[3-(2-amino-1H-imidazol-4-yl)-propyl]-[1,2,3]triazol-1-yl}-N-[2-(4-methoxy-phenyl)-ethyl]-acetamide hydrochloride], 18.3 ± 5%; in that of `CC(C)NC(=O)Cn1cc(CCCc2c[nH]c(N)n2)nn1` [2-{4-[3-(2-amino-1H-imidazol-4-yl)-propyl]-[1,2,3]triazol-1-yl}-N-isopropyl-acetamide hydrochloride], 36.4 ± 3%.
Take `Nc1nc(CCCc2cn(CC(=O)N3CCCC3)nn2)c[nH]1` [2-{4-[3-(2-amino-1H-imidazol-4-yl)-propyl]-[1,2,3]triazol-1-yl}-1-pyrrolidin-1-yl-ethanone hydrochloride]: the inhibition at 100 µM came to 35.4 ± 5%.
In the case of `COc1ccc(CNC(=O)Cn2cc(CCCc3c[nH]c(N)n3)nn2)cc1` [2-{4-[3-(2-amino-1H-imidazol-4-yl)-propyl]-[1,2,3]triazol-1-yl}-N-(4-methoxy-benzyl)-acetamide hydrochloride] it was 71 ± 3%; in that of `Nc1nc(CCCc2cn(CC(=O)NC3CCCCC3)nn2)c[nH]1` [2-{4-[3-(2-amino-1H-imidazol-4-yl)-propyl]-[1,2,3]triazol-1-yl}-N-cyclohexyl-acetamide hydrochloride], 40.5 ± 4%; in that of `CCCCCCNC(=O)Cn1cc(CCCc2c[nH]c(N)n2)nn1` [2-{4-[3-(2-amino-1H-imidazol-4-yl)-propyl]-[1,2,3]triazol-1-yl}-N-hexyl-acetamide hydrochloride], 83.1 ± 16%.
In the case of `CC(C)(C)NC(=O)Cn1cc(CCCc2c[nH]c(N)n2)nn1` [2-{4-[3-(2-amino-1H-imidazol-4-yl)-propyl]-[1,2,3]triazol-1-yl}-N-tert-butyl-acetamide hydrochloride] it was 28.2 ± 15%; in that of `Nc1nc(CCCc2cn(CC(=O)NC3CCCC3)nn2)c[nH]1` [2-{4-[3-(2-amino-1H-imidazol-4-yl)-propyl]-[1,2,3]triazol-1-yl}-N-cyclopentyl-acetamide hydrochloride], 64 ± 4%; in that of `Nc1nc(CCCc2cn(CC(=O)NCc3ccccc3)nn2)c[nH]1` [2-{4-[3-(2-amino-1H-imidazol-4-yl)-propyl]-[1,2,3]triazol-1-yl}-N-benzyl-acetamide hydrochloride], 58.1 ± 2%.
